Source: the NIST ThermoML archive (doi:10.1021/je800925v)

Assay: xn = mol fraction of the nth substance listed
Conditions: Liquid

CCCCCCCC [octane] + CCO
Conditions	mass density [kg/m3]	viscosity [mPa·s]
273.15 K, x2 = 0.095	713.3	0.6185
273.15 K, x2 = 0.192	715.9	0.6401
273.15 K, x2 = 0.294	719.6	0.698
273.15 K, x2 = 0.399	725.5	0.7603
273.15 K, x2 = 0.496	732.2	0.8635
273.15 K, x2 = 0.602	740.1	0.9516
273.15 K, x2 = 0.691	752	1.103
273.15 K, x2 = 0.807	763.9	1.262
273.15 K, x2 = 0.911	781	1.459
275.65 K, x2 = 0.095	709.2	0.6003
275.65 K, x2 = 0.192	713.9	0.6206
275.65 K, x2 = 0.294	719.5	0.6743
275.65 K, x2 = 0.399	723.4	0.7329
275.65 K, x2 = 0.496	731.5	0.828
275.65 K, x2 = 0.602	738	0.9122
275.65 K, x2 = 0.691	749.9	1.054
275.65 K, x2 = 0.807	761.7	1.203
275.65 K, x2 = 0.911	778.9	1.389
278.15 K, x2 = 0.095	707.2	0.583
278.15 K, x2 = 0.192	711.8	0.6019
278.15 K, x2 = 0.294	717.2	0.652
278.15 K, x2 = 0.399	721.3	0.7069
278.15 K, x2 = 0.496	729.4	0.7951
278.15 K, x2 = 0.602	735.9	0.8751
278.15 K, x2 = 0.691	747.8	1.008
278.15 K, x2 = 0.807	759.7	1.148
278.15 K, x2 = 0.911	776.8	1.323
280.65 K, x2 = 0.095	705.1	0.5664
280.65 K, x2 = 0.192	708.5	0.5841
280.65 K, x2 = 0.294	714.8	0.6308
280.65 K, x2 = 0.399	719.2	0.6822
280.65 K, x2 = 0.496	725.2	0.7643
280.65 K, x2 = 0.602	733.8	0.8399
280.65 K, x2 = 0.691	745.7	0.9555
280.65 K, x2 = 0.807	757.6	1.097
280.65 K, x2 = 0.911	774.7	1.26
283.15 K, x2 = 0.095	703	0.5505
283.15 K, x2 = 0.192	706.4	0.5669
283.15 K, x2 = 0.294	712.5	0.6105
283.15 K, x2 = 0.399	717.1	0.6587
283.15 K, x2 = 0.496	723.1	0.7348
283.15 K, x2 = 0.602	731.7	0.8067
283.15 K, x2 = 0.691	743.6	0.9146
283.15 K, x2 = 0.807	755.4	1.047
283.15 K, x2 = 0.911	772.6	1.202
285.65 K, x2 = 0.095	701	0.5351
285.65 K, x2 = 0.192	704.3	0.5505
285.65 K, x2 = 0.294	710.2	0.5906
285.65 K, x2 = 0.399	715	0.6363
285.65 K, x2 = 0.496	723.1	0.707
285.65 K, x2 = 0.602	729.6	0.7758
285.65 K, x2 = 0.691	741.5	0.8763
285.65 K, x2 = 0.807	753.3	1.002
285.65 K, x2 = 0.911	770.5	1.147
288.15 K, x2 = 0.095	698.9	0.5207
288.15 K, x2 = 0.192	702.2	0.5347
288.15 K, x2 = 0.294	708.1	0.5721
288.15 K, x2 = 0.399	712.9	0.615
288.15 K, x2 = 0.496	721	0.6805
288.15 K, x2 = 0.602	727.5	0.7453
288.15 K, x2 = 0.691	739.4	0.8411
288.15 K, x2 = 0.807	751.2	0.958
288.15 K, x2 = 0.911	768.4	1.095
290.65 K, x2 = 0.095	696.8	0.5072
290.65 K, x2 = 0.192	700.1	0.5195
290.65 K, x2 = 0.294	705.9	0.5541
290.65 K, x2 = 0.399	710.8	0.5946
290.65 K, x2 = 0.496	718.9	0.6543
290.65 K, x2 = 0.602	725.3	0.7168
290.65 K, x2 = 0.691	737.2	0.8071
290.65 K, x2 = 0.807	749.1	0.9164
290.65 K, x2 = 0.911	766.3	1.046
293.15 K, x2 = 0	705.6	0.5374
293.15 K, x2 = 0.095	694.7	0.4931
293.15 K, x2 = 0.192	698	0.5049
293.15 K, x2 = 0.294	703.8	0.5366
293.15 K, x2 = 0.399	708.6	0.5752
293.15 K, x2 = 0.496	716.8	0.6298
293.15 K, x2 = 0.602	723.2	0.6899
293.15 K, x2 = 0.691	735.1	0.7742
293.15 K, x2 = 0.807	746.9	0.8781
293.15 K, x2 = 0.911	764.1	0.9997
295.65 K, x2 = 0.095	692.6	0.4796
295.65 K, x2 = 0.192	695.9	0.4908
295.65 K, x2 = 0.294	701.7	0.5197
295.65 K, x2 = 0.399	706.5	0.5566
295.65 K, x2 = 0.496	714.7	0.6039
295.65 K, x2 = 0.602	721.1	0.6643
295.65 K, x2 = 0.691	732.9	0.7428
295.65 K, x2 = 0.807	744.7	0.8415
295.65 K, x2 = 0.911	762	0.956
298.15 K, x2 = 0	701.6	0.5087
298.15 K, x2 = 0.095	690.5	0.4675
298.15 K, x2 = 0.192	693.8	0.477
298.15 K, x2 = 0.294	699.6	0.5022
298.15 K, x2 = 0.399	704.3	0.5386
298.15 K, x2 = 0.496	712.6	0.5828
298.15 K, x2 = 0.602	718.9	0.6396
298.15 K, x2 = 0.691	730.8	0.7137
298.15 K, x2 = 0.807	742.6	0.8061
298.15 K, x2 = 0.911	759.8	0.925

CCCCCC [hexane] + CCO
Conditions	mass density [kg/m3]	viscosity [mPa·s]
273.15 K, x2 = 0.101	688.8	0.3638
273.15 K, x2 = 0.198	694.5	0.4
273.15 K, x2 = 0.302	702	0.4511
273.15 K, x2 = 0.401	712.1	0.5478
273.15 K, x2 = 0.496	721.4	0.6415
273.15 K, x2 = 0.6	732.7	0.77
273.15 K, x2 = 0.701	744.1	0.8963
273.15 K, x2 = 0.793	760.4	1.096
273.15 K, x2 = 0.901	781.1	1.377
275.65 K, x2 = 0.101	686.5	0.3563
275.65 K, x2 = 0.198	692.3	0.3904
275.65 K, x2 = 0.302	699.7	0.4388
275.65 K, x2 = 0.401	709.8	0.5294
275.65 K, x2 = 0.496	719.2	0.6182
275.65 K, x2 = 0.6	730.5	0.7386
275.65 K, x2 = 0.701	741.9	0.8583
275.65 K, x2 = 0.793	758.3	1.047
275.65 K, x2 = 0.901	779	1.311
278.15 K, x2 = 0.101	684.3	0.3492
278.15 K, x2 = 0.198	690	0.3812
278.15 K, x2 = 0.302	697.5	0.4269
278.15 K, x2 = 0.401	707.6	0.5119
278.15 K, x2 = 0.496	716.9	0.5956
278.15 K, x2 = 0.6	728.3	0.709
278.15 K, x2 = 0.701	739.7	0.8224
278.15 K, x2 = 0.793	756.1	1
278.15 K, x2 = 0.901	776.8	1.25
280.65 K, x2 = 0.101	682	0.3422
280.65 K, x2 = 0.198	687.8	0.3722
280.65 K, x2 = 0.302	695.2	0.4154
280.65 K, x2 = 0.401	704.9	0.4927
280.65 K, x2 = 0.496	714.7	0.5741
280.65 K, x2 = 0.6	726.1	0.6809
280.65 K, x2 = 0.701	737.4	0.7884
280.65 K, x2 = 0.793	753.9	0.9561
280.65 K, x2 = 0.901	774.7	1.191
283.15 K, x2 = 0.101	679.8	0.3352
283.15 K, x2 = 0.198	685.5	0.3635
283.15 K, x2 = 0.302	692.9	0.4042
283.15 K, x2 = 0.401	702.7	0.4766
283.15 K, x2 = 0.496	712.4	0.5537
283.15 K, x2 = 0.6	723.8	0.6543
283.15 K, x2 = 0.701	735.2	0.7562
283.15 K, x2 = 0.793	751.7	0.9147
283.15 K, x2 = 0.901	772.5	1.136
285.65 K, x2 = 0.101	677.5	0.3283
285.65 K, x2 = 0.198	683.2	0.3549
285.65 K, x2 = 0.302	690.6	0.3934
285.65 K, x2 = 0.401	700.4	0.4614
285.65 K, x2 = 0.496	710.1	0.5343
285.65 K, x2 = 0.6	721.5	0.629
285.65 K, x2 = 0.701	733	0.7257
285.65 K, x2 = 0.793	749.5	0.8754
285.65 K, x2 = 0.901	770.4	1.085
288.15 K, x2 = 0.101	675.2	0.3215
288.15 K, x2 = 0.198	680.9	0.346
288.15 K, x2 = 0.302	688.3	0.383
288.15 K, x2 = 0.401	698.1	0.4239
288.15 K, x2 = 0.496	707.9	0.5159
288.15 K, x2 = 0.6	719.3	0.6052
288.15 K, x2 = 0.701	730.8	0.6967
288.15 K, x2 = 0.793	747.3	0.8384
288.15 K, x2 = 0.901	768.2	1.036
290.65 K, x2 = 0.101	672.8	0.3147
290.65 K, x2 = 0.198	678.6	0.3366
290.65 K, x2 = 0.302	686	0.3728
290.65 K, x2 = 0.401	695.8	0.433
290.65 K, x2 = 0.496	705.5	0.498
290.65 K, x2 = 0.6	717	0.5822
290.65 K, x2 = 0.701	728.5	0.6691
290.65 K, x2 = 0.793	745.1	0.8031
290.65 K, x2 = 0.901	766	0.9898
293.15 K, x2 = 0	659.8	0.2979
293.15 K, x2 = 0.101	670.5	0.308
293.15 K, x2 = 0.198	676.2	0.3264
293.15 K, x2 = 0.302	683.7	0.3597
293.15 K, x2 = 0.401	693.5	0.3995
293.15 K, x2 = 0.496	703.2	0.4493
293.15 K, x2 = 0.6	714.7	0.5606
293.15 K, x2 = 0.701	726.2	0.643
293.15 K, x2 = 0.793	742.8	0.7696
293.15 K, x2 = 0.901	763.9	0.9463
295.65 K, x2 = 0.101	668.2	0.3016
295.65 K, x2 = 0.198	673.9	0.3161
295.65 K, x2 = 0.302	681.4	0.3499
295.65 K, x2 = 0.401	691.1	0.3949
295.65 K, x2 = 0.496	700.9	0.4437
295.65 K, x2 = 0.6	712.4	0.5401
295.65 K, x2 = 0.701	724	0.6182
295.65 K, x2 = 0.793	740.6	0.7377
295.65 K, x2 = 0.901	761.7	0.9052
298.15 K, x2 = 0	655.3	0.2865
298.15 K, x2 = 0.101	665.9	0.2953
298.15 K, x2 = 0.198	671.5	0.3049
298.15 K, x2 = 0.302	679	0.3398
298.15 K, x2 = 0.401	688.8	0.3755
298.15 K, x2 = 0.496	–	0.4288
298.15 K, x2 = 0.6	710.1	0.5021
298.15 K, x2 = 0.701	721.7	0.5944
298.15 K, x2 = 0.793	738.3	0.7071
298.15 K, x2 = 0.901	759.5	0.8663
